Measured values: BindingDB's records for doi:10.1016/j.bmcl.2013.05.031 (Second Military Medical University, 2013)

Molecular target: Acrosin (Homo sapiens, UniProt P10323)
Assay: Inhibition of human sperm acrosin using BAPNA as substrate after 3 hrs by spectrophotometric analysis

Sequence of Acrosin (P10323 20-42 limits assumed): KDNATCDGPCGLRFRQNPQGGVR
Sequence of Acrosin (P10323 43-343 limits assumed): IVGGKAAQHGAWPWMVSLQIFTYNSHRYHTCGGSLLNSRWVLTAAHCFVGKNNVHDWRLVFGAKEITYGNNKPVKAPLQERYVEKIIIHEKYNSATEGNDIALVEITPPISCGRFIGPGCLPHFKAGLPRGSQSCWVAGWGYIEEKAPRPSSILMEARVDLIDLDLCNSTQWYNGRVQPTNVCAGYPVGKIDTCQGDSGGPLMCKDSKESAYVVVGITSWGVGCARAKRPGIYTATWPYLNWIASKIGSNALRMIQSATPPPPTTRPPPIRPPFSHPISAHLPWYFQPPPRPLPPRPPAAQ

Row | IC50 [µM] | SMILES
1 | 3070 | O=C(NCCCO)c1cc(-c2ccc([N+](=O)[O-])cc2)[nH]n1
2 | 2950 | CC(O)CNC(=O)c1cc(-c2ccc([N+](=O)[O-])cc2)[nH]n1 (stereo not drawn)
3 | 780 | O=C(NCCCO)c1cc(-c2cccc([N+](=O)[O-])c2)[nH]n1
4 | 940 | O=C(NC(CO)(CO)CO)c1cc(-c2ccccc2)n[nH]1
5 | 380 | O=C(NCCCO)c1cc(-c2ccc(Br)cc2)[nH]n1
6 | 1700 | O=C(c1cc(-c2ccccc2)[nH]n1)N(CCO)CCO
7 | 10 | CC(O)CN(CC(C)O)C(=O)c1cc(-c2ccccc2)[nH]n1 (stereo not drawn)
8 | 540 | O=C(NCCCO)c1cc(-c2ccccc2)[nH]n1
9 | 2800 | O=C(NCCO)c1cc(-c2ccccc2)n[nH]1
10 | 530 | O=C(NCCO)c1cc(-c2ccc(Br)cc2)[nH]n1
11 | 10000 | O=C(NCCOCCO)c1cc(-c2ccc(Br)cc2)[nH]n1
12 | 60 | CC(O)CNC(=O)c1cc(-c2ccccc2)[nH]n1 (stereo not drawn)
13 | 760 | O=C(NCCO)c1cc(-c2cccc([N+](=O)[O-])c2)[nH]n1
14 | 3000 | CC(CO)NC(=O)c1cc(-c2ccccc2)[nH]n1 (stereo not drawn)
15 | 760 | O=C(NC(CO)(CO)CO)c1cc(-c2cccc([N+](=O)[O-])c2)[nH]n1

Continued, molecule first:

Row | SMILES | IC50 [µM]
16 | CC(CO)NC(=O)c1cc(-c2ccc(Br)cc2)n[nH]1 (stereo not drawn) | 880
17 | O=C(NC(CO)(CO)CO)c1cc(-c2ccc([N+](=O)[O-])cc2)[nH]n1 | 5220
18 | CC(O)CNC(=O)c1cc(-c2cccc([N+](=O)[O-])c2)n[nH]1 (stereo not drawn) | 1830
19 | CN(CCO)C(=O)c1cc(-c2cccc([N+](=O)[O-])c2)n[nH]1 | 790
20 | O=C(c1cc(-c2ccc(Br)cc2)n[nH]1)N(CCO)CCO | 1520
21 | O=C(c1cc(-c2ccc([N+](=O)[O-])cc2)n[nH]1)N(CCO)CCO | 5600
22 | CC(O)CNC(=O)c1cc(-c2ccc(Br)cc2)n[nH]1 (stereo not drawn) | 330
23 | O=C(NCCO)c1cc(-c2ccc([N+](=O)[O-])cc2)n[nH]1 | 2700
24 | COc1ccc(-c2cc(C(=O)N(C)CCO)n[nH]2)cc1 | 410
25 | CC(C)(CO)NC(=O)c1cc(-c2ccc([N+](=O)[O-])cc2)n[nH]1 | 1870
26 | COc1ccc(-c2cc(C(=O)NCCOCCO)[nH]n2)cc1 | 6020
27 | O=C(NCCOCCO)c1cc(-c2cccc([N+](=O)[O-])c2)n[nH]1 | 9100
28 | COc1ccc(-c2cc(C(=O)NCCO)[nH]n2)cc1 | 90
29 | O=Cc1cc(-c2ccc(Cl)cc2Cl)on1 | 390
30 | O=C(c1cc(-c2cccc([N+](=O)[O-])c2)n[nH]1)N(CCO)CCO | 2400
31 | CC(O)CN(CC(C)O)C(=O)c1cc(-c2ccc([N+](=O)[O-])cc2)n[nH]1 (stereo not drawn) | 1210
32 | CN(CCO)C(=O)c1cc(-c2ccc([N+](=O)[O-])cc2)n[nH]1 | 2000
33 | O=C(NCCOCCO)c1cc(-c2ccc([N+](=O)[O-])cc2)n[nH]1 | 2070
